According to PMC3216401 (Antiviral research, 2011):
Values joined by “and” are separate entries in the source; they are usually repeats but may differ in a detail not shown here. Equal values may be shown once. Read-outs that look alike come from different tables or passages of the source.

What was measured:
[1] = in vitro; details: dog
[2] = tested on: B/Florida/4/2006
[3] = tested on: A/Hong Kong/213/2003H (A/Hong Kong/213/2003 × Ann Arbor/6/60 hybrid); assay: microbe, parasite or virus in culture; details: Influenza A virus, H1N1|H5N1, MDCK, read-out: IC50, Visual Assay
[4] = tested on: A/Hong Kong/213/2003H (A/Hong Kong/213/2003 × Ann Arbor/6/60 hybrid); assay: microbe, parasite or virus in culture; format: cell-based; details: Influenza A virus, MDCK, read-out: IC90, VYR Assay
[5] = tested on: Influenza A/Vietnam/1203/2004 (H5N1); assay: microbe, parasite or virus in culture; format: cell-based; details: H5N1, MDCK, read-out: IC90, VYR Assay
[6] = tested on: A/Gull/PA/4175/83 (H5N1); assay: microbe, parasite or virus in culture; details: Influenza A virus, H5N1, MDCK, read-out: IC50, Visual Assay
[7] = tested on: Influenza A/Vietnam/1203/2004 (H5N1)
[8] = tested on: Influenza A/Vietnam/1203/2004 (H5N1); remark: listed apart in the source
[9] = tested on: B/Malaysia/2506/2004
[10] = tested on: A/Hong Kong/213/2003H (A/Hong Kong/213/2003 × Ann Arbor/6/60 hybrid)
[11] = tested on: A/Duck/MN/1525/81 (H5N1)
[12] = tested on: A/Vietnam/1203/04H (A/Vietnam/1203/04 × Ann Arbor/6/60 hybrid); assay: microbe, parasite or virus in culture; format: cell-based; details: Influenza A virus, MDCK, read-out: IC90, VYR Assay
[13] = mouse, in vivo
[14] = tested on: Influenza A/Vietnam/1203/2004 (H5N1); assay: microbe, parasite or virus in culture; details: H5N1, MDCK, read-out: IC50, Neutral Red Uptake Assay
[15] = tested on: B/Florida/4/2006; assay: microbe, parasite or virus in culture; format: cell-based; details: Influenza B virus, MDCK, read-out: IC90, VYR Assay
[16] = tested on: Influenza A/Sydney/05/97 (H3N2)
[17] = in vitro; details: dog, CC50 values, range, neutral red uptake assay
[18] = tested on: A/Vietnam/1203/04H (A/Vietnam/1203/04 × Ann Arbor/6/60 hybrid)
[19] = tested on: Influenza A/Sydney/05/97 (H3N2); remark: listed apart in the source
[20] = tested on: Influenza A/Vietnam/1203/2004 (H5N1); assay: microbe, parasite or virus in culture; details: H5N1, MDCK, read-out: IC50, Visual Assay
[21] = tested on: A/Brisbane/10/2007 (H3N2); assay: microbe, parasite or virus in culture; format: cell-based; details: Influenza A virus, H3N2, MDCK, read-out: IC90, VYR Assay
[22] = tested on: A/Hong Kong/213/2003 (H5N1)
[23] = tested on: A/Hong Kong/213/2003 (H5N1); remark: listed apart in the source
[24] = tested on: A/Thailand/2(Kan-1)/16/2004 (H5N1)
[25] = tested on: A/Thailand/2(Kan-1)/16/2004 (H5N1); assay: microbe, parasite or virus in culture; details: Influenza A virus, H5N1, MDCK, read-out: IC50, Neutral Red Uptake Assay
[26] = tested on: A/Thailand/2(Kan-1)/16/2004 (H5N1); assay: microbe, parasite or virus in culture; format: cell-based; details: Influenza A virus, H5N1, MDCK, read-out: IC90, VYR Assay
[27] = tested on: A/Thailand/2(Kan-1)/16/2004 (H5N1); assay: microbe, parasite or virus in culture; details: Influenza A virus, H5N1, MDCK, read-out: IC50, Visual Assay
[28] = tested on: A/Hong Kong/213/2003 (H5N1); assay: microbe, parasite or virus in culture; format: cell-based; details: Influenza A virus, H5N1, MDCK, read-out: IC90, VYR Assay
[29] = tested on: A/Hong Kong/213/2003 (H5N1); assay: microbe, parasite or virus in culture; details: Influenza A virus, H5N1, MDCK, read-out: IC50, Visual Assay
[30] = tested on: A/Thailand/2(Kan-1)/16/2004 (H5N1); remark: listed apart in the source
[31] = tested on: influenza A/CA/04/09 pandemic H1N1 virus; design: species or system BALB/c mice; details: mouse, in vivo
[32] = tested on: influenza viruses; assay: microbe, parasite or virus in culture; format: cell-based, influenza A and B viruses; details: Influenza A virus, MDCK, read-out: IC50, all viruses tested
[33] = tested on: influenza virus; details: in vivo; cited from earlier work
[34] = tested on: A/Hong Kong/213/2003 (H5N1); assay: microbe, parasite or virus in culture; details: Influenza A virus, H5N1, MDCK, read-out: IC50, Neutral Red Uptake Assay

## Nc1ccn([C@@H]2O[C@H](CO)[C@@H](O)C2(F)F)c(=O)n1 [2’-deoxy-2’, 2’-difluorocytidine, reference compound]
[1]; CC50 values, range, visual assay
  CC50: 2100 to 530000 nM
[2]
  SI (CC50/IC50), Neutral Red Uptake Assay: >440
[3]
  IC50: < 32 nM
[4]
  IC90: 40 nM
[5]
  IC90: 30 nM
[6]
  IC50: 210 nM
[7]
  SI (CC50/IC50), Neutral Red Uptake Assay: >3100
[8]
  SI (CC50/IC50), Visual Assay: >3100
[9]
  SI (CC50/IC50), Visual Assay: >3100
[10]
  SI (CC50/IC50), Visual Assay: >3100
[11]
  SI (CC50/IC50), Neutral Red Uptake Assay: >880
[12]
  IC90: 320 nM
[13]
  Tolerability in uninfected mice: well tolerated
[14]
  IC50: < 32 nM
[15]
  IC90: 1700 nM
[16]
  SI (CC50/IC50), Neutral Red Uptake Assay: 5.7
[17]
  CC50: 1100 to 280000 nM
[18]
  SI (CC50/IC50), Visual Assay: >1000
[19]
  SI (CC50/IC50), Visual Assay: 67
[20]
  IC50: < 32 nM
[21]
  IC90: 140 nM

## Nc1ccn([C@@H]2O[C@H](CO)[C@@H](O)[C@H]2F)c(=O)n1 [2’-deoxy-2’-fluorocytidine, 2'-deoxy-2'-fluorocytidine]
[22]
  SI (CC50/IC50), Neutral Red Uptake Assay: >447 ± 216
[23]
  SI (CC50/IC50), Visual Assay: >1954 ± 553
[1]; CC50, Visual Assay
  CC50: > 100000 nM
[2]
  SI (CC50/IC50), Neutral Red Uptake Assay: >71
[24]
  SI (CC50/IC50), Neutral Red Uptake Assay: >251 ± 249
[3]
  IC50: 1300 nM
[4]
  IC90: 5100 nM
[6]
  IC50: 910 nM
[25]
  IC50: 720 ± 510 nM
[26]
  IC90: 690 nM
[9]
  SI (CC50/IC50), Visual Assay: >53
[27]
  IC50: 160 ± 40 nM
[11]
  SI (CC50/IC50), Neutral Red Uptake Assay: >480
[12]
  IC90: 2900 nM
[28]
  IC90: 1540 nM
[29]
  IC50: 50 ± 10 nM
[30]
  SI (CC50/IC50), Visual Assay: >676 ± 204
[31]
  Live/Total: 5/10 and 4/10 and 0/10
  Mean Day of Death ± SD: 7.8 ± 1.3 days and 8.9 ± 1.2 days and 9.3 ± 2.1 days
[15]
  IC90: 2100 nM
[16]
  SI (CC50/IC50), Neutral Red Uptake Assay: >40
[18]
  SI (CC50/IC50), Visual Assay: >48
[32]
  IC50: < 15000 nM
[33]
  Effect on virus lung titers in the mouse model: did not reduce virus lung titers
[34]
  IC50: 270 ± 140 nM
[19]
  SI (CC50/IC50), Visual Assay: >170
[21]
  IC90: 6800 nM
